# US20190375723A1, “New Naphtho[2,3-B]Furan Derivatives” (Boston Biomedical, Inc., priority 2016, published 2019)
# What was measured:
# HCT-116 cells [1] = assay: Proliferation inhibition assay of cancer cells; format: cell-based; conditions: Homo sapiens, 96 h, adherent culture with 10% FBS, cultured for 4 days, Cell Titer-Glo, read-out: IC50 (μM) HCT (Bulk IC50 value)
# Procedure: HCT-116 cells were obtained from American Type Culture Collection (ATCC). HCT-116 cells were cultured at 37° C. in the presence of 5% CO2 using McCoy's 5a medium containing 10% fetal bovine serum (FBS) and 1% penicillin/streptomycin. After cells were seeded at 300-600 cells/well onto μClear-plate black 384 well (Greiner bio-one Cat. No. 781091), a test substance was added such that the final concentration of DMSO is 0.1%, and cultured for 4 days. The number of living cells was then counted using Cell Titer-Glo (registered trademark) Luminescent Cell Viability Assay (Promega) to calculate a concentration for 50% inhibition of cell proliferation of respective test substances (Bulk IC50 value; μM).
# HCT-116 cells [2] = assay: Inhibition assay of cancer cell sphere-forming ability; format: cell-based; conditions: Homo sapiens, 96 h, ultra-low attachment plate, serum-free DMEM/F12 with B27, EGF, bFGF, insulin, cultured for 4 days, Cell Titer-Glo
# Procedure: HCT-116 cells were obtained from American Type Culture Collection (ATCC). HCT-116 cells were cultured at 37° C. in the presence of 5% CO2 using McCoy's 5a medium containing 10% fetal bovine serum (FBS) and 1% penicillin/streptomycin. The HCT-116 cells were seeded onto 384 Well Black Clear Bottom Ultra-Low Attachment Microplate (Corning Cat. No. 3827) using DMEM/F12 medium containing 2% B27 supplement (GIBCO), 20 ng/mL epidermal growth factor (EGF) (peprotech), 10 ng/mL basic fibroblast growth factor (bFGF) (peprotech), 5 μg/mL insulin (Sigma), and 1% penicillin/streptomycin to be 350-800 cells/well. A test substance was added so that the final concentration of DMSO is 0.1%, and then cultured for 4 days. The number of living cells was then counted using Cell Titer-Glo (registered trademark) Luminescent Cell Viability Assay (Promega) to calculate the concentration for 50% inhibition of cell proliferation of respective test substances (Sphere IC50 value; μM) (this test is a method which evaluates the functions of cancer stem cells (see Non Patent Literature 4)).
Compound,IC50 (HCT-116 cells [1]),IC50 (HCT-116 cells [2])
"CC(=O)c1cc2c(o1)C(=O)c1c(ccc(Br)c1O)C2=O [Example 3, 2-Acetyl-7-bromo-8-hydroxynaphtho[2,3-b]furan-4,9-dione]",4.93 µM,6.39 µM
"CC(=O)c1cc2c(o1)C(=O)c1c(Cl)ccc(O)c1C2=O [Example 1, 2-Acetyl-8-chloro-5-hydroxynaphtho[2,3-b]furan-4,9-dione]",0.63 µM,0.24 µM
"CC(=O)c1cc2c(o1)C(=O)c1ccc(Br)c(O)c1C2=O [Example 2, 2-Acetyl-6-bromo-5-hydroxynaphtho[2,3-b]furan-4,9-dione]",0.63 µM,5.12 µM
